Source: patent US20160375031A1, “ALPHA-OXOACYL AMINO-CAPROLACTAM DERIVATIVE” (Seikagaku Corporation, priority 2013, published 2016)
Several values for one entry are separate records, joined by “and”; a condition that tells them apart may be missing. Equal values may be shown once. Read-outs that look alike come from different tables or passages of the source.

Columns and labels:
[1] = molecular target: T1, Cathepsin K (Oryctolagus cuniculus, UniProt P43236); assay: Measurement of cathepsin K inhibitory activity (fluorescent substrate Z-Gly-Pro-Arg-MCA); settings: for CYP/CatK: ratio of IC50 for CYP3A4 inhibitory activity (MBI) to IC50 for cathepsin K inhibitory activity
T1 sequence (P43236 115-329): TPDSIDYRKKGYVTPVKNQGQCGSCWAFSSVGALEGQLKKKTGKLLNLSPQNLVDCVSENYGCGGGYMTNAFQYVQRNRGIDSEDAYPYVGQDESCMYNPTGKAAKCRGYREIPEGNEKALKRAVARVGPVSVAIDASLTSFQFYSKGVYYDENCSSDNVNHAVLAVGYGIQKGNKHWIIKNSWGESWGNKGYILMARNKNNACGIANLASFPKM
Description: (§1) Specifically, the decomposition of 20 μM Z-Gly-Pro-Arg-MCA by cathepsin K was measured in 100 mM potassium sodium phosphate, 1 mM EDTA, 8 mM Cysteine, pH 6.0. The reaction was performed at 37° C. for 30 minutes and then quenched by the addition of 2×10^−5 M of calpeptin. After the reaction was quenched, the intensity of fluorescence was measured at an excitation wavelength of 355 nm and a measurement wavelength of 460 nm.

[2] = test system: male mice fed with low-calcium diet; settings: values shown in JP 2000-204071 A (Patent Literature 1); cited from earlier work
[3] = molecular target: T2, CYP3A4 (Homo sapiens, UniProt P08684)
Description: (§2) A reaction mixture was prepared by mixing the compound of the present invention with midazolam as a typical substrate for CYP3A4 (see Food and Drug Administration (FDA) Guidance for Industry Drug Interaction Studies—Study Design, Data Analysis, Implications for Dosing, and Labeling Recommendations. FDA web site [online], www.fda.gov/downloads/drugs/guidancecomplianceregulatoryinformation/guidances/ucm292362.pdf), coenzyme NADPH-generating system, human hepatic microsomes, and a phosphate buffer. The reaction mixture was incubated at 37° C. for 10 minutes.
(§3) The coenzyme NADPH-generating system solution was prepared by mixing the materials shown in Table 1: the 13 mmol/L β-NADP^+ solution, the 33 mmol/L G-6-P solution, the solution of 10 U/mL G6PDH (Y) (manufactured by Oriental Yeast Co., Ltd.), and the 33 mmol/L MgCl2 solution in a ratio of 1:1:0.4:1 (v:v:v:v).
(§4) After the incubation, the reaction was quenched by the addition of an acetonitrile solution to the reaction mixture. The amount of 1′-hydroxymidazolam produced (the metabolite produced from midazolam by CYP3A4) was measured in the quenched sample with a high-performance liquid chromatography tandem mass spectrometer (LC-MS/MS). Each IC50 value for DI (direct inhibition) was determined from the amount of the produced 1′-hydroxymidazolam and the final concentration of the compound of the present invention or the comparative compound in the reaction mixture.
(§5) MBI (mechanism based inhibition) was evaluated as follows. After the reaction mixture not containing midazolam (but containing the compound of the present invention or the comparative compound, the coenzyme NADPH-generating system, the human hepatic microsomes, and the phosphate buffer) was pre-incubated at 37° C. for 30 minutes, midazolam was added to the reaction mixture. The reaction mixture was then incubated at 37° C. for 10 minutes. Subsequently, the reaction was quenched by the addition of an acetonitrile solution to the reaction mixture. The amount of 1′-hydroxymidazolam produced was measured in the quenched sample with an LC-MS/MS. As in the case of DI, each IC50 value for MBI was determined from the amount of the produced 1′-hydroxymidazolam and the final concentration of the compound of the present invention or the comparative compound in the reaction mixture.

[4] = molecular target: T2, CYP3A4; assay: biochemical
Description: as §2, §3, §4, §5

[5] = test system: male mice fed with low-calcium diet; assay: Measurement of bone resorption inhibitory activity (decrease in serum calcium in low-calcium diet mice); format: in vivo; settings: low-calcium diet 7 days, 100 mg/kg oral, 4 hours after administration, vs control group
Description: The measurement was performed by the same method as described in JP 2000-204071 A (Patent Literature 1). Specifically, male mice (23 to 25 g weight, 8 mice per group) were fed with low-calcium diet (0.1% calcium diet) for 7 days. […] The rate (%) of decrease in serum calcium was determined by comparison with the control group.
It should be noted that the data of the rate (%) of decrease in serum calcium as to comparative compounds 1 to 15 are the values shown in JP 2000-204071 A (Patent Literature 1).

[6] = molecular target: T1, Cathepsin K
Description: as §1

[7] = read-out: CatK Inhibitory IC50, 20 μM Z-Gly-Pro-Arg-MCA, pH 6.0, 37° C., 30 minutes
[8] = read-out: CYP3A4 Inhibitory IC50 DI, DI (direct inhibition), human hepatic microsomes, midazolam, 37° C. 10 minutes
[9] = read-out: CYP3A4 Inhibitory IC50 MBI, MBI (mechanism based inhibition), 30 minutes pre-incubation with NADPH-generating system before midazolam

T2 sequence (P08684 whole entry): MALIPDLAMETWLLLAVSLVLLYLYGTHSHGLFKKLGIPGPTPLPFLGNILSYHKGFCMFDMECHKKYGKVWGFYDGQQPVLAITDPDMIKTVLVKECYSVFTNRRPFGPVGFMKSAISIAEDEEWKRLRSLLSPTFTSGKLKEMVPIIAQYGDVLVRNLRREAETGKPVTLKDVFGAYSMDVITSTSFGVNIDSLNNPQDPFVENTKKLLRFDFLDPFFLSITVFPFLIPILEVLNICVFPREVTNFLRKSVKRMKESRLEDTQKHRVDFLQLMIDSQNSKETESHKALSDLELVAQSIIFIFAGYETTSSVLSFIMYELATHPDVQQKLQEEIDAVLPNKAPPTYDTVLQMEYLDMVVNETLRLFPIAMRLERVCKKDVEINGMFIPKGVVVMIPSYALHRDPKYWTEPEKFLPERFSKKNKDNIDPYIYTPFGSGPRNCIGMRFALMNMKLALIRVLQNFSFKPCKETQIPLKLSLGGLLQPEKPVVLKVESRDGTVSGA

Compound	CYP/CatK [1]	IC50 [1, 7] [µM]	Rate of Decrease in Serum Ca [2] [%]	IC50 [3, 8] [µM]	IC50 [3, 9] [µM]	IC50 [1] [µM]	IC50 [4]	Rate of Decrease in Serum Ca [5] [%]	CYP/CatK [6]
[1-[[[(1S)-3-[[(3S)-hexahydro-2-oxo-1H-azepin-3-yl]amino]-1-(1-methylethyl)-2,3-dioxopropyl]amino]carbonyl]cyclohexyl]carbamic acid tetrahydro-2H-pyran-4-yl ester [Compound 1]	207	0.016	5.39	11.7	3.36	–	–	–	–
COC(=O)N1CCC(OC(=O)NC2(C(=O)N[C@H](C(=O)C(=O)N[C@H]3CCCCNC3=O)C(C)C)CCCCC2)CC1 [Compound 2, [1-[[[(1S)-3-[[(3S)-hexahydro-2-oxo-1H-azepin-3-yl]amino]-1-(1-methylethyl)-2,3-dioxopropyl]amino]carbonyl]cyclohexyl]carbamic acid 1-(methoxycarbonyl)-4-piperidinyl ester]	–	–	–	–	–	0.00052	55.6 µM and 23 µM	5.6	44231
CC(C)[C@H](NC(=O)C1(NC(=O)OC2CCOCC2)CCCCC1)C(=O)C(=O)N[C@H]1CCCCNC1=O [Compound 1, [1-[[[(1S)-3-[[(3S)-hexahydro-2-oxo-1H-azepin-3-yl]amino]-1-(1-methylethyl)-2,3-dioxopropyl]amino]carbonyl]cyclohexyl]carbamic acid tetrahydro-2H-pyran-4-yl ester]	–	–	–	–	–	0.00056	> 100 µM and 80 µM	6.2	141739
[1-[[[(1S)-3-[[(3S)-hexahydro-2-oxo-1H-azepin-3-yl]amino]-1-(1-methylethyl)-2,3-dioxopropyl]amino]carbonyl]cyclohexyl]carbamic acid 1-(methoxycarbonyl)-4-piperidinyl ester [Compound 2]	122	0.013	4.71	9.31	1.53	–	–	–	–
